One data set relates to AsPC-1 cells. Description: AsPC-1 CTG proliferation assay (120 h) (pancreatic cancer, G12D). It counts as cell-based. As to conditions: Homo sapiens, ASPC1. In outline: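 CellTiter-Glo luminescence, normalised to DMSO wells, measured viability after 120 h compound exposure. Cells were AsPC-1 pancreatic cancer (G12D) plated at 2000 per well in RPMI/10% FCS the day before dosing. IC50 derived by four-parameter regression.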

The nature of data set [1]: Caco-2 assay (permeability PappAB, PappBA, efflux ratio). It counts as in vitro ADME. As to conditions: human, Caco-2, 10 μM test compound, pH 7.4; for Papp A→B at 90 min, 10 μM: apical to basolateral; for efflux ratio at 90 min, 10 μM: efflux ratio PappBA/PappAB, read-out: Caco ER. The method in brief:
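Bidirectional permeability (apical-to-basolateral and reverse) through polarized Caco-2 monolayers, BSA 0.25% on each side, 37 °C. Donor and receiver sampled at 0-90 min after 25-30 min preincubation, analysed by HPLC/MS/MS. Apparent permeabilities derived from transfer rate normalised to area and t=0 donor concentration; ER taken as PappBA over PappAB.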
On the technique in general: Caco-2 cells form a polarised layer with tight junctions and transporters.

The subject of the next data set is LOVO cells. Put plainly: LOVO CTG proliferation assay (120 h) (CRC, G13D). Format: cell-based. As to conditions: Homo sapiens, CTG 120 h. The method in brief:
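IC50 comes from a four-parameter fit of CellTiter-Glo viability, expressed as RLU relative to DMSO wells. Compound exposure lasted 120 h in LOVO cells seeded the day before at 1000 cells/well in DMEM with 10% fetal calf serum.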

For another data set, the system named is NCI-H358 cells. Description: NCI-H358 CTG proliferation assay (120 h) (NSCLC, G12C). Format: cell-based, human. As to conditions: Homo sapiens, assay 2, CTG, read-out: H358 (assay 2) IC50. In outline:
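IC50 values derive from four-parameter nonlinear regression of CellTiter-Glo viability (RLU relative to DMSO wells) after 120 h of exposure. Cells were plated in RPMI-1640 + 10% FCS at 2000 per well (assay 1) or 200 per well (assay 2). Untreated cells were measured at compound addition as T0.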

SMILES strings stand for the structures.

As usually defined, the IC50 is the point on the concentration scale where inhibition reaches its midpoint. The term Papp A→B denotes the apparent permeability from the apical to the basolateral side of a cell layer. As to `Cc1cn(-c2cc(O[C@@H](C)[C@@H]3CCCN3C)nc(-c3noc4c3CCC[C@@]43CCCc4sc(N)c(C#N)c43)n2)nn1` [II-106], the IC50 in the data set on AsPC-1 cells is 9450 nM; in the data set on LOVO cells, 993 nM; with NCI-H358 cells, 2250 nM. Besides, the Papp A→B at 90 min, 10 μM in data set [1] turned out to be 15 ×10⁻⁶ cm/s. In data set [1], the efflux ratio at 90 min, 10 μM came to 1.1.

As to `C[C@H](Oc1cc(-c2ccn(C3COC3)n2)nc(-c2noc3c2CCC[C@@]32CCCc3sc(N)c(C#N)c32)n1)[C@@H]1CCCN1C` [II-109], the IC50 in the data set with AsPC-1 cells is 3830 nM; in the data set with LOVO cells, 76 nM; with NCI-H358 cells it was 78 nM. The Papp A→B at 90 min, 10 μM in data set [1] came out at 3.5 ×10⁻⁶ cm/s. In data set [1], the efflux ratio at 90 min, 10 μM amounted to 7.4.

With `C[C@H](Oc1cc(-n2ccc(Br)n2)nc(-c2noc3c2CCC[C@@]32CCCc3sc(N)c(C#N)c32)n1)[C@@H]1CCCN1C` [II-110], the IC50 is 2820 nM with AsPC-1 cells, 92 nM in the data set on LOVO cells and 217 nM in the data set with NCI-H358 cells. For the same compound, the efflux ratio at 90 min, 10 μM in data set [1] is 0.5.

With `C[C@H](Oc1cc(-c2cnsc2)nc(-c2noc3c2CCC[C@@]32CCCc3sc(N)c(C#N)c32)n1)[C@@H]1CCCN1C` [II-111], the IC50 with AsPC-1 cells turned out to be 2810 nM; in the data set with LOVO cells, 309 nM; in the data set with NCI-H358 cells it was 139 nM. Also, the efflux ratio at 90 min, 10 μM in data set [1] stood at 1.5.

`C[C@H](O)Cn1ccc(-c2cc(O[C@@H](C)[C@@H]3CCCN3C)nc(-c3noc4c3CCC[C@@]43CCCc4sc(N)c(C#N)c43)n2)n1` [II-112]: the IC50 is 2250 nM in the data set with AsPC-1 cells, 58 nM with LOVO cells and 141 nM in the data set on NCI-H358 cells. For the same compound, the Papp A→B at 90 min, 10 μM in data set [1] stood at 5.9 ×10⁻⁶ cm/s. Besides, in data set [1], the efflux ratio at 90 min, 10 μM is 5.6.

As to `C[C@H](Oc1cc(-n2cc(Cn3ccnc3)nn2)nc(-c2noc3c2CCC[C@@]32CCCc3sc(N)c(C#N)c32)n1)[C@@H]1CCCN1C` [II-113], the IC50 is 2010 nM in the data set with AsPC-1 cells, 123 nM in the data set on LOVO cells and 128 nM in the data set on NCI-H358 cells. In data set [1], the Papp A→B at 90 min, 10 μM came out at 1.1 ×10⁻⁶ cm/s. In data set [1], the efflux ratio at 90 min, 10 μM is 30.9.

Consider `COC(=O)c1ccc(-c2cc(O[C@@H](C)[C@@H]3CCCN3C)nc(-c3noc4c3CCC[C@@]43CCCc4sc(N)c(C#N)c43)n2)o1` [II-114], for which the IC50 in the data set on AsPC-1 cells came out at 2300 nM; in the data set on LOVO cells it was 142 nM; in the data set with NCI-H358 cells, 123 nM. In addition, in data set [1], the efflux ratio at 90 min, 10 μM worked out at 0.9.

Turning to `C[C@H](Oc1cc(-c2ccn(C[C@@H](C)O)n2)nc(-c2noc3c2CCC[C@@]32CCCc3sc(N)c(C#N)c32)n1)[C@@H]1CCCN1C` [II-117], the IC50 with AsPC-1 cells came out at 1660 nM; in the data set with LOVO cells it was 58 nM; in the data set on NCI-H358 cells it was 98 nM. The Papp A→B at 90 min, 10 μM in data set [1] was 1.4 ×10⁻⁶ cm/s. The efflux ratio at 90 min, 10 μM in data set [1] is 20.7.

In the case of `C[C@H](Oc1cc(-n2cc(C3CC3)nn2)nc(-c2noc3c2CCC[C@@]32CCCc3sc(N)c(C#N)c32)n1)[C@@H]1CCCN1C` [II-118], the IC50 was determined as 3170 nM in the data set with AsPC-1 cells, 295 nM in the data set with LOVO cells and 295 nM in the data set with NCI-H358 cells. For the same compound, the efflux ratio at 90 min, 10 μM in data set [1] stood at 0.7.

In the case of `C[C@H](Oc1cc(-n2ccc(-c3ccccn3)n2)nc(-c2noc3c2CCC[C@@]32CCCc3sc(N)c(C#N)c32)n1)[C@@H]1CCCN1C` [II-119], the IC50 in the data set on AsPC-1 cells was found to be 1320 nM; in the data set on LOVO cells, 152 nM; in the data set on NCI-H358 cells, 42 nM. In data set [1], the Papp A→B at 90 min, 10 μM came to 1 ×10⁻⁶ cm/s. Further, in data set [1], the efflux ratio at 90 min, 10 μM was 1.1.

Turning to `C[C@H](Oc1cc(-n2ccnc2)nc(-c2noc3c2CCC[C@@]32CCCc3sc(N)c(C#N)c32)n1)[C@@H]1C[C@@H](F)CN1C` [II-120], the IC50 with AsPC-1 cells was 3510 nM; in the data set with LOVO cells, 401 nM; with NCI-H358 cells it was 190 nM. The Papp A→B at 90 min, 10 μM in data set [1] worked out at 8 ×10⁻⁶ cm/s. Moreover, the efflux ratio at 90 min, 10 μM in data set [1] turned out to be 1.5.

With `COCc1cn(-c2cc(O[C@@H](C)[C@@H]3CCCN3C)nc(-c3noc4c3CCC[C@@]43CCCc4sc(N)c(C#N)c43)n2)nn1` [II-121], the IC50 was determined as 3070 nM in the data set with AsPC-1 cells, 129 nM in the data set on LOVO cells and 268 nM in the data set with NCI-H358 cells. Moreover, the Papp A→B at 90 min, 10 μM in data set [1] stood at 6.3 ×10⁻⁶ cm/s. The efflux ratio at 90 min, 10 μM in data set [1] amounted to 3.7.

On to `CNC(=O)c1cn(-c2cc(O[C@@H](C)[C@@H]3CCCN3C)nc(-c3noc4c3CCC[C@@]43CCCc4sc(N)c(C#N)c43)n2)nn1` [II-122], for which the IC50 in the data set on AsPC-1 cells was 3350 nM; in the data set on LOVO cells, 180 nM; in the data set with NCI-H358 cells it was 823 nM. For the same compound, the Papp A→B at 90 min, 10 μM in data set [1] worked out at 7.9 ×10⁻⁶ cm/s. The efflux ratio at 90 min, 10 μM in data set [1] came out at 3.2.

`C[C@H](Oc1cc(-n2cc(-c3cccnc3)nn2)nc(-c2noc3c2CCC[C@@]32CCCc3sc(N)c(C#N)c32)n1)[C@@H]1CCCN1C` [II-123]: the IC50 with AsPC-1 cells stood at 1540 nM; with LOVO cells it was 72 nM; in the data set on NCI-H358 cells, 439 nM. In data set [1], the efflux ratio at 90 min, 10 μM was 4.6.

For `C[C@H](Oc1cc(-n2cc(Cn3cncn3)nn2)nc(-c2noc3c2CCC[C@@]32CCCc3sc(N)c(C#N)c32)n1)[C@@H]1CCCN1C` [II-124], the IC50 in the data set on AsPC-1 cells was 2100 nM; with LOVO cells, 128 nM; in the data set with NCI-H358 cells, 114 nM. For the same compound, in data set [1], the Papp A→B at 90 min, 10 μM is 1 ×10⁻⁶ cm/s. Also, the efflux ratio at 90 min, 10 μM in data set [1] is 33.7.

Values taken from patent US20240174690A1, “ANNULATED 2-AMINO-3-CYANO THIOPHENES AND DERIVATIVES FOR THE TREATMENT OF CANCER” (BOEHRINGER INGELHEIM INTERNATIONAL GMBH, priority 2021, published 2024).
